Test results published in patent US7671057B2, “Therapeutic agent for type II diabetes comprising protease-inhibiting compound” (Ono Pharmaceutical Co., Ltd., priority 2004, dated 2010).
Marks after values point to notes of the source that are not given here.

Tests used:
Format in all cases: in vivo, mouse
KK-A^y/Ta Jcl mice [1] = test: Blood-sugar level after single and repeated oral administration (Example 1)
Description: On the day of initiation of administration (Day 1 of Administration), the obese/spontaneously type II diabetic mice; KK-A^y/Ta Jcl mice (male, 6-weeks aged, n=8) were treated through individual oral administration of the Test Compound 1 (ethyl N-allyl-N—[(E)-2-methyl-3-[4-(4-amidinophenoxycarbonyl)-phenyl]propenoyl]aminoacetate/methanesulfonate) of the present invention and the Control Compound 1 (5-{4-[2-(5-ethylpyridine-2-yl)ethoxy]benzyl}-1,3-thiazolidine-2,4-dione; pioglitazone) at the daily dose of 30 mg/kg, or the control medium (0.5% CMC), and blood was drawn from each animal through the orbital venous plexus 6 hours after administration. The blood-sugar levels were measured in accordance with the enzyme electrode method by use of Antosense II (manufactured by Daikin Kogyo KK of Japan). The said test was carried out while the animals were allowed free access to food and water.
Following the above-described single administration, the repeated, once-a-day forced oral administration of each compound was performed at the same daily dose for the total period of 14 consecutive days. On Days 3 and 11, blood was drawn in the same manner as described above 6 hours after administration of each compound, followed by measurement of the blood-sugar level.
The blood-sugar, TC, TG, IRI and IRG levels and the body weight were expressed as a mean value±standard deviation as calculated for each group of animals. With reference to the significance test between the group treated through administration of the medium and each group treated through administration of the compound, the F test was effected to analyze the data and then, the Student's t-test and Aspin-Welch's t-test were used in cases where the variance between the two groups was determined to be equal and unequal, respectively. Referring to the significance level, less than 5% (p<0.05) was considered significant, and the significance level was expressed as divided into the two events of less than 1% (**: p<0.01) and less than 5% (*: p<0.05).

KK-A^y/Ta Jcl mice [2] = test: Blood-sugar level, administration as admixture with food (Example 2)
Description: (§1) KK-A^y/Ta Jcl Mice (male, 6- to 7-weeks aged, the number of cases; 8 animals) were treated through individual administration, in the form of an admixture with a food, of the Test Compound 2 (N-allyl-N-{(2E)-3-[4-({4-[amino(imino)methyl]phenoxy}-carbonyl)phenyl]-2-methyl-2-propenoyl}glycine/dimethane-sulfonate) of the present invention and the Control Compound 1 (5-(4-[2-(5-ethylpyridine-2-yl)ethoxy]benzyl)-1,3-thiazolidine-2,4-dione; pioglitazone) at the daily dose of 16.8 mg/100 g-food for 7 consecutive days, whereby the control group was fed with an ordinary food alone.
(§2) Blood was drawn from the tail vein individually on the day (Day 1) preceding to administration of the Test Compound in the form of an admixture with a food, and on Days 2, 5, 7 and 14 of administration, and the blood samples were subjected to measurement of the blood-sugar level in accordance with the same procedure as described in Example 1, while, at the same time, the animals were weighed.

[3] = Body weight, administration as admixture with food (Example 2)
Description: as §1, §2

KK-A^y/Ta Jcl mice [4] = test: Blood-sugar level at satiety, dose-ranging food admixture up to Day 28 (Example 3); settings: for Blood-sugar level: end of the test (Day 28)
Description: KK-A^y/Ta Jcl Mice (male, 6-weeks aged, the number of cases; 8 animals) were treated through individual administration, in the form of an admixture with a food, of the Test Compound 2 (N-allyl-N-{(2E)-3-[4-({4-[amino(imino)methyl]phenoxy}-carbonyl)phenyl]-2-methyl-2-propenoyl}glycine/dimethanesulfonate) of the present invention at the daily doses of 0.56 mg, 1.68 mg, 5.6 mg and 16.8 mg/100 g-food, respectively, and the Control Compound 1 (5-{4-[2-(5-ethylpyridine-2-yl)-ethoxy]benzyl}-1,3-thiazolidine-2,4-dion; pioglitazone) at the daily doses of 5.6 mg and 16.8 mg/100 g-food, respectively, […], whereby the control group was fed with an ordinary food alone.
Blood was drawn from the tail vein individually on the day preceding to administration of each compound in the form of an admixture with a food, and on Days 6, 11, 16, 21 and 28 of administration.
The blood samples taken from the tail vein on the respective specified days after the administration were subjected to measurement of the blood-sugar level in accordance with the method as described in Example 1, while the plasma glucagon level after the forced oral administration performed on Days 28 was measured in accordance with the ELISA method as described in Example 1. Also, the glycosylated hemoglobin (HbA1c) and GLP-1 levels were determined in accordance with the latex coagulation method and the ELISA method (YK160, GLP-1 EIA Kit, produced by K.K. Yanaihara Kenkyu-sho of Japan), respectively, while the TG level was measured in accordance with the method as described in Example 1. The total pancreatic insulin content after oral administration of each compound was determined by adding 75% ethanol to the isolated pancreas as frozen, followed by homogenization, and collecting the insulin fraction through Sep-Pak (C18; WATER) treatment of the supernatant liquid produced by centrifugation, followed by determination with the ELIZA method.

[5] = repeated once-a-day oral 30 mg/kg, 6 hours after administration
[6] = day preceding administration (baseline), 16.8 mg/100 g-food group

Which results are given for `CCc1ccc(CCOc2ccc(CC3SC(=O)NC3=O)cc2)nc1` (centres unmarked) [Control Compound 1, 5-{4-[2-(5-ethylpyridine-2-yl)ethoxy]benzyl}-1,3-thiazolidine-2,4-dione, reference compound]?
Blood-sugar level before administration (KK-A^y/Ta Jcl mice [1]; Day 1, before single oral administration of 30 mg/kg (baseline)): 440.6 ± 24.3 mg/dL; Blood-sugar level Day 3 (KK-A^y/Ta Jcl mice [1]; [5]): 224.4 ± 14.4 mg/dL; Blood-sugar level Day 11 (KK-A^y/Ta Jcl mice [1]; [5]): 220.3 ± 8.2* mg/dL; Blood-sugar lowering action vs control medium group (in words) (KK-A^y/Ta Jcl mice [1]; single administration 30 mg/kg, 6 hours after administration): failed to elicit any significant blood-sugar lowering action; Blood-sugar level 6 hrs. after administration (KK-A^y/Ta Jcl mice [1]; single oral administration, 30 mg/kg): 287.9 ± 28.6 mg/dL; Blood-sugar level Day 2 (KK-A^y/Ta Jcl mice [2]; 16.8 mg/100 g-food admixture): 323.3 ± 15.7 mg/dL; Blood-sugar level Day 5 (KK-A^y/Ta Jcl mice [2]; 16.8 mg/100 g-food admixture): 350.0 ± 13.6 mg/dL; Blood-sugar level Day 7 (KK-A^y/Ta Jcl mice [2]; 16.8 mg/100 g-food admixture): 311.3 ± 19.4 mg/dL; Blood-sugar level Day 14 (KK-A^y/Ta Jcl mice [2]; 16.8 mg/100 g-food admixture): 270.5 ± 10.8 mg/dL; Blood-sugar level Day 1 (KK-A^y/Ta Jcl mice [2]; [6]): 309.3 ± 21.2 mg/dL; Body weight Day 2 ([3]; 16.8 mg/100 g-food admixture): 30.4 ± 0.7 g; Body weight Day 5 ([3]; 16.8 mg/100 g-food admixture): 33.3 ± 0.8 g; Body weight Day 7 ([3]; 16.8 mg/100 g-food admixture): 34.6 ± 0.6 g; Body weight Day 14 ([3]; 16.8 mg/100 g-food admixture): 39.4 ± 1.1 g; Body weight Day 1 [3, 6]: 29.8 ± 0.7 g; Effect on body weight (in words) ([3]; food admixture 16.8 mg/100 g-food, time course): tendency to elevate the body weight; Blood-sugar lowering effect at the end of the test (Day 28) (in words) (KK-A^y/Ta Jcl mice [4]; 16.8 mg/100 g group): no blood-sugar lowering effect observed; Time-course changes in blood-sugar level at satiety vs Control Group (in words, FIG. 1) (KK-A^y/Ta Jcl mice [4]; 16.8 mg/100 g group): significant drops in blood-sugar level on Days 6 and 11; Blood-sugar level (KK-A^y/Ta Jcl mice [4]; Dose 5.6 (g/100 g-food)): 561.6 ± 28.2 mg/dL; Blood-sugar level (KK-A^y/Ta Jcl mice [4]; Dose 16.8 (g/100 g-food)): 497.0 ± 26.8 mg/dL
